Laboratory results: PubChem BioAssay AID192 (DTP/NCI, 2004)
Several values for one entry are separate records, joined by “and”; a condition that tells them apart may be missing. Equal values may be shown once. Toxic doses and inconclusive results are not listed. Square brackets hold non-standard residues; d marks the D form. Peptide text beside a SMILES is read from it. * marks the point of attachment. ξ: configuration not given here. ξF = NC(Cc1ccccc1)C(=O)O; Bz = O=C(c1ccccc1)*

System: BDF1 mice, B16 melanoma ip, median survival T/C
Assay: NCI In Vivo Anticancer Drug Screen. Data for tumor model B16 Melanoma (intraperitoneal) in B6D2F1 (BDF1) mice
Conditions: endpoint: median survival time, higher = longer survival
Outline: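 Mice with transplantable tumors; drug vs vehicle groups; endpoint survival or tumor size; value = T/C.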

[1] = dose: 100.0 mg/kg/injection, schedule: Q04DX003 (ip), vehicle: Klucel (hydroxypropylcellulose) (HPC)
[2] = dose: 200.0 mg/kg/injection, schedule: Q04DX003 (ip), vehicle: Klucel (hydroxypropylcellulose) (HPC)
[3] = dose: 400.0 mg/kg/injection, schedule: Q04DX003 (ip), vehicle: Klucel (hydroxypropylcellulose) (HPC)
[4] = dose: 25.0 mg/kg/injection, schedule: Q01DX009 (ip), vehicle: Klucel (hydroxypropylcellulose) (HPC)
[5] = dose: 100.0 mg/kg/injection, schedule: Q01DX009 (ip), vehicle: Klucel (hydroxypropylcellulose) (HPC)
[6] = dose: 200.0 mg/kg/injection, schedule: Q01DX009 (ip), vehicle: Klucel (hydroxypropylcellulose) (HPC)
[7] = dose: 50.0 mg/kg/injection, schedule: Q01DX009 (ip), vehicle: Klucel (hydroxypropylcellulose) (HPC)

NC(=S)N/N=C\c1nccc2c(C(F)(F)F)cccc12
T/C (dose: 1.5 mg/kg/injection, schedule: Q04DX003 (ip), vehicle: saline with Tween-80): 105 % of control
T/C (dose: 3.0 mg/kg/injection, schedule: Q04DX003 (ip), vehicle: saline with Tween-80): 110 % of control
T/C (dose: 6.0 mg/kg/injection, schedule: Q04DX003 (ip), vehicle: saline with Tween-80): 100 % of control
T/C (dose: 12.0 mg/kg/injection, schedule: Q04DX003 (ip), vehicle: saline with Tween-80): 102 % of control

CC1CN1CC(O)C(O)CN1CC1C (configuration not stated)
T/C (dose: 0.25 mg/kg/injection, schedule: Q01DX009 (ip), vehicle: saline): 100 % of control
T/C (dose: 0.4 mg/kg/injection, schedule: Q01DX009 (ip), vehicle: saline): 110 % of control
T/C (dose: 0.5 mg/kg/injection, schedule: Q01DX009 (ip), vehicle: saline): 107 % of control and 102 % of control
T/C (dose: 0.6 mg/kg/injection, schedule: Q01DX009 (ip), vehicle: saline): 118 % of control
T/C (dose: 0.63 mg/kg/injection, schedule: Q01DX009 (ip), vehicle: saline): 150 % of control
T/C (dose: 0.8 mg/kg/injection, schedule: Q01DX009 (ip), vehicle: saline): 110 % of control
T/C (dose: 0.9 mg/kg/injection, schedule: Q01DX009 (ip), vehicle: saline): 153 % of control
T/C (dose: 1.25 mg/kg/injection, schedule: Q01DX009 (ip), vehicle: saline): 93 % of control
T/C (dose: 2.0 mg/kg/injection, schedule: Q01DX009 (ip), vehicle: saline): 156 % of control and 151 % of control
T/C (dose: 2.5 mg/kg/injection, schedule: Q01DX009 (ip), vehicle: saline): 106 % of control

CCOC(=O)Nc1cccc2ccccc12
T/C [1]: 102 % of control
T/C [2]: 105 % of control
T/C [3]: 102 % of control

CCCc1c2cc(OC)c(OC)cc2cc2c3cc(OC)c(OC)cc3cc[n+]12 (tested in a mixture with another compound)
T/C (dose: 6.25 mg/kg/injection, schedule: Q01DX009 (ip), vehicle: Klucel (hydroxypropylcellulose) (HPC)): 100 % of control
T/C (dose: 12.5 mg/kg/injection, schedule: Q01DX009 (ip), vehicle: Klucel (hydroxypropylcellulose) (HPC)): 96 % of control
T/C [4]: 100 % of control

O=C1OCC2C1Cc1cc(O)c(O)cc1C2c1ccc(O)c(O)c1 (configuration not stated)
T/C [5]: 112 % of control
T/C [6]: 94 % of control
T/C (dose: 400.0 mg/kg/injection, schedule: Q01DX009 (ip), vehicle: Klucel (hydroxypropylcellulose) (HPC)): 105 % of control

CCO
T/C (dose: 250.0 mg/kg/injection, schedule: Q01DX009 (ip), vehicle: saline): 109 % of control
T/C (dose: 500.0 mg/kg/injection, schedule: Q01DX009 (ip), vehicle: saline): 86 % of control
T/C (dose: 1000.0 mg/kg/injection, schedule: Q01DX009 (ip), vehicle: saline): 104 % of control
T/C (dose: 2000.0 mg/kg/injection, schedule: Q01DX009 (ip), vehicle: saline): 93 % of control

COCCCN1CCN(c2ccccc2OC)CC1
T/C (dose: 25.0 mg/kg/injection, schedule: Q01DX009 (ip), vehicle: saline): 101 % of control
T/C (dose: 50.0 mg/kg/injection, schedule: Q01DX009 (ip), vehicle: saline): 92 % of control

Clc1ccc(COC(Cn2ccnc2)c2ccc(Cl)cc2Cl)c(Cl)c1 (configuration not stated)
T/C [4]: 106 % of control
T/C [7]: 115 % of control
T/C [5]: 96 % of control
T/C [6]: 106 % of control

CCCCCCCCC(O)CC (configuration not stated)
T/C [7]: 98 % of control
T/C [5]: 97 % of control
T/C [6]: 93 % of control

COc1ccc(OC(=O)Nc2ccccc2Cl)cc1
T/C [1]: 106 % of control
T/C [2]: 103 % of control
T/C [3]: 103 % of control

O=C(CNC(=O)c1ccccc1)NCC(=O)NC(Cc1ccccc1)C(=O)O (stereo not drawn) (Bz-Gly-Gly-[ξF]-OH)
T/C (dose: 50.0 mg/kg/injection, schedule: Q01DX009 (ip), vehicle: saline with Tween-80): 90 % of control
T/C (dose: 100.0 mg/kg/injection, schedule: Q01DX009 (ip), vehicle: saline with Tween-80): 87 % of control
T/C (dose: 200.0 mg/kg/injection, schedule: Q01DX009 (ip), vehicle: saline with Tween-80): 90 % of control
